From BindingDB's records for PubMed 34170694 (China Pharmaceutical University, 2021)

molecular target: T1, Caspase-3 (Homo sapiens, UniProt P42574); assay: Activation of caspase 3 in human MDA-MB-231 cells measured after 48 hrs by Plate reader method
T1 sequence (P42574 whole entry): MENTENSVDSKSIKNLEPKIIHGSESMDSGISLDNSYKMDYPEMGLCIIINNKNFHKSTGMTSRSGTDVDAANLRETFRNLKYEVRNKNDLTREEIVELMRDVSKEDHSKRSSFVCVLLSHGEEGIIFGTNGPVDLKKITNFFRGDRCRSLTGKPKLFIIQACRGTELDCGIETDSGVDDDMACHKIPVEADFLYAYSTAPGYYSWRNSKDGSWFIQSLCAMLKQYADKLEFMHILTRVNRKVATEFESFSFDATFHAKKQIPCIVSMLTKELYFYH

Compound	EC50
C=c1c(O)c(O)cc2c1=CC=C1[C@@]2(C)CC[C@@]2(C)[C@@H]3C[C@](C)(C(=O)O)CC[C@]3(C)CC[C@]12C	1.4 µM

molecular target: not listed separately; assay: Activation of caspase 3 in human MDA-MB-231 cells measured after 48 hrs by Plate reader method

Compound	EC50
C#CCOC(=O)[C@]1(C)CC[C@]2(C)CC[C@]3(C)C4=CC=C5C(=CC(=O)C(OC(=O)CCC)=C5C)[C@]4(C)CC[C@@]3(C)[C@@H]2C1	20.9 µM
C#CCOC(=O)[C@]1(C)CC[C@]2(C)CC[C@]3(C)C4=CC=C5C(=CC(=O)C(OC(=O)c6ccc(F)cc6)=C5C)[C@]4(C)CC[C@@]3(C)[C@@H]2C1	21.2 µM
C#CCOC(=O)[C@]1(C)CC[C@]2(C)CC[C@]3(C)C4=CC=C5C(=CC(=O)C(OC(=O)C=C)=C5C)[C@]4(C)CC[C@@]3(C)[C@@H]2C1	22.1 µM
C#CCOC(=O)[C@]1(C)CC[C@]2(C)CC[C@]3(C)C4=CC=C5C(=CC(=O)C(OC(=O)/C=C/c6ccccc6)=C5C)[C@]4(C)CC[C@@]3(C)[C@@H]2C1	20.1 µM
C#CCOC(=O)[C@]1(C)CC[C@]2(C)CC[C@]3(C)C4=CC=C5C(=CC(=O)C(OC(=O)N(CC)CC)=C5C)[C@]4(C)CC[C@@]3(C)[C@@H]2C1	20.4 µM
C#CCOC(=O)[C@]1(C)CC[C@]2(C)CC[C@]3(C)C4=CC=C5C(=CC(=O)C(OC(=O)N(C)C)=C5C)[C@]4(C)CC[C@@]3(C)[C@@H]2C1	23.9 µM
C#CCOC(=O)[C@]1(C)CC[C@]2(C)CC[C@]3(C)C4=CC=C5C(=CC(=O)C(OC(=O)N6CCCCC6)=C5C)[C@]4(C)CC[C@@]3(C)[C@@H]2C1	24.1 µM
C#CCOC(=O)[C@]1(C)CC[C@]2(C)CC[C@]3(C)C4=CC=C5C(=CC(=O)C(OC(=O)N6CCCC6)=C5C)[C@]4(C)CC[C@@]3(C)[C@@H]2C1	24.3 µM
C#CCOC(=O)[C@]1(C)CC[C@]2(C)CC[C@]3(C)C4=CC=C5C(=CC(=O)C(OC(=O)N6c7ccccc7C=Cc7ccccc76)=C5C)[C@]4(C)CC[C@@]3(C)[C@@H]2C1	23.1 µM
C#CCOC(=O)[C@]1(C)CC[C@]2(C)CC[C@]3(C)C4=CC=C5C(=CC(=O)C(OC(=O)N6CCN(C)CC6)=C5C)[C@]4(C)CC[C@@]3(C)[C@@H]2C1	20.5 µM
C#CCOC(=O)[C@]1(C)CC[C@]2(C)CC[C@]3(C)C4=CC=C5C(=CC(=O)C(OC(=O)N(C)CCC)=C5C)[C@]4(C)CC[C@@]3(C)[C@@H]2C1	20.5 µM
C#CCOC(=O)[C@]1(C)CC[C@]2(C)CC[C@]3(C)C4=CC=C5C(=CC(=O)C(OC(=O)N(C)CCCC)=C5C)[C@]4(C)CC[C@@]3(C)[C@@H]2C1	20.3 µM
C#CCOC(=O)[C@]1(C)CC[C@]2(C)CC[C@]3(C)C4=CC=C5C(=CC(=O)C(OC(=O)N(CCCC)CCCC)=C5C)[C@]4(C)CC[C@@]3(C)[C@@H]2C1	22.3 µM
C#CCOC(=O)[C@]1(C)CC[C@]2(C)CC[C@]3(C)C4=CC=C5C(=CC(=O)C(OC(=O)N6CCN(c7ccc(Cl)cc7)CC6)=C5C)[C@]4(C)CC[C@@]3(C)[C@@H]2C1	20.1 µM
C#CCOC(=O)[C@]1(C)CC[C@]2(C)CC[C@]3(C)C4=CC=C5C(=CC(=O)C(OC(=O)N6CCN(c7ccccc7Cl)CC6)=C5C)[C@]4(C)CC[C@@]3(C)[C@@H]2C1	20.3 µM

Second part, the compound after the results:

EC50	Compound
1.6 µM	CC1=C(O)C(=O)C=C2C1=CC=C1[C@@]2(C)CC[C@@]2(C)[C@@H]3C[C@](C)(C(=O)OCc4ccccc4)CC[C@]3(C)CC[C@]12C
19.3 µM	C#CCOC(=O)[C@]1(C)CC[C@]2(C)CC[C@]3(C)C4=CC=C5C(=CC(=O)C(OC(C)=O)=C5C)[C@]4(C)CC[C@@]3(C)[C@@H]2C1
16.4 µM	C#CCOC(=O)[C@]1(C)CC[C@]2(C)CC[C@]3(C)C4=CC=C5C(=CC(=O)C(OC(=O)c6ccc(Br)cc6)=C5C)[C@]4(C)CC[C@@]3(C)[C@@H]2C1
19.7 µM	C#CCOC(=O)[C@]1(C)CC[C@]2(C)CC[C@]3(C)C4=CC=C5C(=CC(=O)C(OC(=O)/C=C/C)=C5C)[C@]4(C)CC[C@@]3(C)[C@@H]2C1
14.1 µM	C#CCOC(=O)[C@]1(C)CC[C@]2(C)CC[C@]3(C)C4=CC=C5C(=CC(=O)C(OC(=O)/C=C/c6ccccc6F)=C5C)[C@]4(C)CC[C@@]3(C)[C@@H]2C1
15.7 µM	C#CCOC(=O)[C@]1(C)CC[C@]2(C)CC[C@]3(C)C4=CC=C5C(=CC(=O)C(OC(=O)/C=C/c6cccc(Cl)c6)=C5C)[C@]4(C)CC[C@@]3(C)[C@@H]2C1
17.8 µM	C#CCOC(=O)[C@]1(C)CC[C@]2(C)CC[C@]3(C)C4=CC=C5C(=CC(=O)C(OC(=O)/C=C/c6cccc(C)c6)=C5C)[C@]4(C)CC[C@@]3(C)[C@@H]2C1
14.9 µM	C#CCOC(=O)[C@]1(C)CC[C@]2(C)CC[C@]3(C)C4=CC=C5C(=CC(=O)C(OC(=O)C(=C)C)=C5C)[C@]4(C)CC[C@@]3(C)[C@@H]2C1
18.7 µM	C#CCOC(=O)[C@]1(C)CC[C@]2(C)CC[C@]3(C)C4=CC=C5C(=CC(=O)C(OC(=O)N(C)CC)=C5C)[C@]4(C)CC[C@@]3(C)[C@@H]2C1
19.9 µM	C#CCOC(=O)[C@]1(C)CC[C@]2(C)CC[C@]3(C)C4=CC=C5C(=CC(=O)C(OC(=O)N(c6ccccc6)c6ccccc6)=C5C)[C@]4(C)CC[C@@]3(C)[C@@H]2C1
18.5 µM	C#CCOC(=O)[C@]1(C)CC[C@]2(C)CC[C@]3(C)C4=CC=C5C(=CC(=O)C(OC(=O)N6c7ccccc7Sc7ccccc76)=C5C)[C@]4(C)CC[C@@]3(C)[C@@H]2C1
10 µM	C#CCOC(=O)[C@]1(C)CC[C@]2(C)CC[C@]3(C)C4=CC=C5C(=CC(=O)C(OC(=O)N6c7ccccc7CCc7ccccc76)=C5C)[C@]4(C)CC[C@@]3(C)[C@@H]2C1
17.5 µM	C#CCOC(=O)[C@]1(C)CC[C@]2(C)CC[C@]3(C)C4=CC=C5C(=CC(=O)C(OC(=O)N(CCC)CCC)=C5C)[C@]4(C)CC[C@@]3(C)[C@@H]2C1
19.3 µM	C#CCOC(=O)[C@]1(C)CC[C@]2(C)CC[C@]3(C)C4=CC=C5C(=CC(=O)C(OC(=O)N6CCN(c7ccccc7)CC6)=C5C)[C@]4(C)CC[C@@]3(C)[C@@H]2C1
19.6 µM	C#CCOC(=O)[C@]1(C)CC[C@]2(C)CC[C@]3(C)C4=CC=C5C(=CC(=O)C(OC(=O)N6CCN(c7cccc(OC)c7)CC6)=C5C)[C@]4(C)CC[C@@]3(C)[C@@H]2C1
18.2 µM	C#CCOC(=O)[C@]1(C)CC[C@]2(C)CC[C@]3(C)C4=CC=C5C(=CC(=O)C(OC(=O)N6CCN(c7ccccc7OC)CC6)=C5C)[C@]4(C)CC[C@@]3(C)[C@@H]2C1
